Results reported in ChEMBL document CHEMBL1138225, “Synthesis and structure-activity relationships of 3,8-diazabicyclo[4.2.0]octane ligands, potent nicotinic acetylcholine receptor agonists” (J Med Chem, 2006).

What was measured:
[1] = molecular target: Neuronal acetylcholine receptor; alpha4/beta2 (Rattus norvegicus, UniProt P09483+P12390); test: Displacement of [3H]cytisine from alpha-4-beta-2 ACHR in rat brain homogenate; assay type: tissue-based
[2] = molecular target: T1, Neuronal acetylcholine receptor; alpha3/beta4 (Homo sapiens, UniProt P30926+P32297); test: Agonist activity at human alpha-3-beta-4 ACHR expressed in HEK293 cells assessed as change in intracellular calcium concentration by FLIPR; assay type: functional, cell-based
T1 sequence (P30926 whole entry): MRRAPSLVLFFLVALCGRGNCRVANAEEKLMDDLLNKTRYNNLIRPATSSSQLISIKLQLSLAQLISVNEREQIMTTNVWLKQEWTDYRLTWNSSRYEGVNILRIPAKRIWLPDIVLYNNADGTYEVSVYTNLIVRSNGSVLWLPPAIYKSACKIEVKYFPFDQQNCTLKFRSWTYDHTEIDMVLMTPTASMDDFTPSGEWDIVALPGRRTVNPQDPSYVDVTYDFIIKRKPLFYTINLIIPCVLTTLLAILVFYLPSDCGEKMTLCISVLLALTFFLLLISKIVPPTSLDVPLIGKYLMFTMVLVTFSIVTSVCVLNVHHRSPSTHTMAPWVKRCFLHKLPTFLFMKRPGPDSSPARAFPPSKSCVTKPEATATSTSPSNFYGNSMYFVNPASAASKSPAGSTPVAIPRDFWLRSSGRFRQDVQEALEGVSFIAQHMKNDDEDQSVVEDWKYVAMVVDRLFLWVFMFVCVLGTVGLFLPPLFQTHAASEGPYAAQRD
T1 sequence (P32297 whole entry): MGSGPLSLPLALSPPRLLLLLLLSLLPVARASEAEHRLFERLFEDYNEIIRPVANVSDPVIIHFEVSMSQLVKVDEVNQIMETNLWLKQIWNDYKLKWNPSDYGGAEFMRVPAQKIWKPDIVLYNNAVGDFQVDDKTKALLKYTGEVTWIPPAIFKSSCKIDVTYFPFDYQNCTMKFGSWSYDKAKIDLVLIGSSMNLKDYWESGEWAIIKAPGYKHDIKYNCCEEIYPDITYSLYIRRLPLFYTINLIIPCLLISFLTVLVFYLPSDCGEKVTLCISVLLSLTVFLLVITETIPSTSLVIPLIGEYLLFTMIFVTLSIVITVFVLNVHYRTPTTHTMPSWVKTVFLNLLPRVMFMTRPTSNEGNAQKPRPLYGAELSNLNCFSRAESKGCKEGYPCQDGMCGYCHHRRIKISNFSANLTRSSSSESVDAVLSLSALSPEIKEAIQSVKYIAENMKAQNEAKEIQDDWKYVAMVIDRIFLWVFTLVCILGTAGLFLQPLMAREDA

[3] = molecular target: T1, Neuronal acetylcholine receptor; alpha3/beta4; test: Maximal agonist activity at human alpha-3-beta-4 ACHR expressed in HEK293 cells assessed as change in intracellular calcium concentration by FLIPR relative to nicotine; assay type: functional, cell-based
[4] = molecular target: T2, Neuronal acetylcholine receptor; alpha4/beta2 (Homo sapiens, UniProt P17787+P43681); test: Maximal agonist activity on human alpha-4-beta-2 ACHR expressed in HEK293 cells assessed as change in intracellular calcium concentration by FLIPR relative to nicotine; assay type: functional, cell-based
T2 sequence (P17787 whole entry): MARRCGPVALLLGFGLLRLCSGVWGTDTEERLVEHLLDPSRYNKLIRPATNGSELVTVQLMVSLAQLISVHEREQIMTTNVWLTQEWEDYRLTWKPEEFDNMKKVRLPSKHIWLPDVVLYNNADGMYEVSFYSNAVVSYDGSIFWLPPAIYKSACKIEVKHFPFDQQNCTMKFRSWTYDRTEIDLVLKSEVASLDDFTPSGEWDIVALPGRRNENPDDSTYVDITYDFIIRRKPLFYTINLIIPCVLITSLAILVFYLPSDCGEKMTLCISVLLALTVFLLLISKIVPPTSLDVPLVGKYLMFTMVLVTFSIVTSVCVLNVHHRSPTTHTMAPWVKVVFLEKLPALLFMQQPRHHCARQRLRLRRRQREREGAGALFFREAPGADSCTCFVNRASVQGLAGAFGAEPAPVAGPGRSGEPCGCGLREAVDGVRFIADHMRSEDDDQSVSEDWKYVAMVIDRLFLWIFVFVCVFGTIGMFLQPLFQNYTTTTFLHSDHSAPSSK
T2 sequence (P43681 whole entry): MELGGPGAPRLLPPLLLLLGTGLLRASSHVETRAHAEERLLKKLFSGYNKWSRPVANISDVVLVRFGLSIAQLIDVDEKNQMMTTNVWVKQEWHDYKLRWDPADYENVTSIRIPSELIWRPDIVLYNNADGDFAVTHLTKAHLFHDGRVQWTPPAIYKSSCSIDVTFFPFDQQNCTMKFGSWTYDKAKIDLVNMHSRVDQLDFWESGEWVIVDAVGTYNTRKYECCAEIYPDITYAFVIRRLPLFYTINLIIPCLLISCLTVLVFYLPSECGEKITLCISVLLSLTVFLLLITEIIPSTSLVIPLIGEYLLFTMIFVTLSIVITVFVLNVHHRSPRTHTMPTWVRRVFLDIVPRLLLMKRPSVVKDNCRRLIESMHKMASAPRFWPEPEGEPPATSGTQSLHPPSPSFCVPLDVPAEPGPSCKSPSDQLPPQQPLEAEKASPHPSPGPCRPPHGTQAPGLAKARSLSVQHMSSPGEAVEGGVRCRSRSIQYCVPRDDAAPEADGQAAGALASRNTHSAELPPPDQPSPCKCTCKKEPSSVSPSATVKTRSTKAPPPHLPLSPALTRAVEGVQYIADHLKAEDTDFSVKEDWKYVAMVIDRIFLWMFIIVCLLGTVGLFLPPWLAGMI

[5] = molecular target: T2, Neuronal acetylcholine receptor; alpha4/beta2; test: Agonist activity at human alpha4beta2 ACHR expressed in HEK293 cells assessed as change in intracellular calcium concentration by FLIPR; assay type: functional, cell-based
[6] = tested on: Rattus norvegicus; test: Activity in rat formalin model measured as reduction in flinches at 0.19 umol/kg, ip; assay type: functional; design: scale not given: the % may be the effect or the level left

Neuronal acetylcholine receptor; alpha4/beta2 (Rattus norvegicus, UniProt P09483+P12390), sequence (P09483 whole entry): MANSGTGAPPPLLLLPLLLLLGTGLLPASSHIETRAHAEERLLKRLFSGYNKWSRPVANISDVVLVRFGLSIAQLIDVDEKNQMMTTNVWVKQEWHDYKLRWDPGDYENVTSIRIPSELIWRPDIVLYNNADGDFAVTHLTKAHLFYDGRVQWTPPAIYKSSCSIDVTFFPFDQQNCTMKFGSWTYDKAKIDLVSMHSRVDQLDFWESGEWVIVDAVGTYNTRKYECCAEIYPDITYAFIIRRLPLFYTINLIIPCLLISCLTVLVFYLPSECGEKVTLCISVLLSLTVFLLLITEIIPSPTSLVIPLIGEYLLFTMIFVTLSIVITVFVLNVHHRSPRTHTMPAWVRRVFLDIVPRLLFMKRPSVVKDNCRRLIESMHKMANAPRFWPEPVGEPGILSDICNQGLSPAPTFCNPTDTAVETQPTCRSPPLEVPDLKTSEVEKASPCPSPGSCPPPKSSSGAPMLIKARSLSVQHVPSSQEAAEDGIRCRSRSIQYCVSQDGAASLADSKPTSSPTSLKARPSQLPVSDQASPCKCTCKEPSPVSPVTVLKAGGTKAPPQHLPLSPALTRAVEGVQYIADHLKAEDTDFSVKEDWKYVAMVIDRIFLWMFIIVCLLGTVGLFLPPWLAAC
Neuronal acetylcholine receptor; alpha4/beta2 (Rattus norvegicus, UniProt P09483+P12390), sequence (P12390 whole entry): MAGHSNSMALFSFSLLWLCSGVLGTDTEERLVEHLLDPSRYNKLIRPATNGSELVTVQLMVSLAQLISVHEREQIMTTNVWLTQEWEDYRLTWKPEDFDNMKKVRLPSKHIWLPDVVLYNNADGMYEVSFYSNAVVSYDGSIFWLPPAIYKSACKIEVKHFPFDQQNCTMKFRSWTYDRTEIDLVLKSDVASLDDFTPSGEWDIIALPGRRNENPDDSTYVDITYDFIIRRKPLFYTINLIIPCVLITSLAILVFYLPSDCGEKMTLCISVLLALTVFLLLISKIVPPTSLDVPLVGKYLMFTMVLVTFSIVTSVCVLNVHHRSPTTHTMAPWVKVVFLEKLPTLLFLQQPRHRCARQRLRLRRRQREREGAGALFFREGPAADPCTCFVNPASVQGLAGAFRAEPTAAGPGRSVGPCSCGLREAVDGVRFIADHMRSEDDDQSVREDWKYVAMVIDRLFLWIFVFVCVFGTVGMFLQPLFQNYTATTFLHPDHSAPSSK

## Clc1ccc(N2C[C@@H]3CCNC[C@@H]32)cn1
[1]
  Ki: 0.00012 µM
[2]
  EC50: 1.39 µM
[3]
  Activity: 129%
[4]
  Activity: 94%
[5]
  EC50: 0.0374 µM
[6]
  Activity: 50%
